US20250186475A1, “METHODS OF TREATING MEDICAL CONDITIONS USING ISLATRAVIR OR A RELATED COMPOUND” (ROME Therapeutics, Inc., priority 2022, published 2025)
Values belong to the compound of their own block, whether it stands above or below them.

Experiments:
[1] = biological target: T1, recombinant MBP-tagged LINE1 protein (238-1061) (Homo sapiens, UniProt O00370); test: Homogeneous time-resolved fluorescence (HTRF) LINE1 RT assay; type: biochemical; details: 25° C., 60 minutes, read-out: IC50 for inhibition of LINE1 reverse transcriptase
T1 construct: recombinant MBP-tagged LINE1 protein (238-1061); MBP; made in house
Experimental: The LINE1 reverse transcriptase homogeneous time-resolved fluorescence (HTRF) assay was performed with recombinant MBP-tagged LINE1 protein (238-1061) (generated and purified according to procedures in Dai L. et al. BMC Biochemistry 2011; 12:18) in a 384-well format. Test compound was serially diluted in DMSO and further diluted in the assay buffer (50 mM Tris-HCl, 50 mM KCl, 10 mM MgCl2, 10 mM DTT, pH 8.1) to achieve a final DMSO concentration of 1%. The serially diluted compound was mixed with 64 ng/well of LINE1 enzyme, 5 nM of pre-annealed template/biotin-primer pair (synthesized at Generay Biotechnology), 10 nM of Fluorescein-12-dATP fluorescent probe (Perkin Elmer), and 1 μM dGTP/dCTP/dTTP (Thermo Fisher Scientific) in the assay buffer. The template/biotin-primer sequences were as follows:
After incubating at 25° C. for 60 minutes, the detection reagent (20 mM EDTA with streptavidin-terbium cryptate, Cisbio Bioassay) in the PPI buffer (Cisbio Bioassay) was added, and the mixture was incubated at 25° C. for 30 minutes. At the end of the incubation, fluorescence was read at ex/em=337/485 nm and ex/em=337/520 nm on an Envision 2104 plate reader (Perkin Elmer). The fluorescence ratio at 520/485 nm was used for the calculation. […] The IC50 was calculated by fitting the compound dose inhibition curve with a 4-parameter non-linear regression equation.

[2] = biological target: T2, LINE1 reverse transcriptase (Homo sapiens, UniProt O00370); test: Transient artificial-intron Cis LINE1 reporter assay; type: cell-based; details: HEK 293 cells, FLuc/RLuc ratio, read-out: IC50 for inhibition of FLuc luminescence
T2 construct: expressed in transfected cells
Experimental: Intron-disrupted Firefly luciferase (FLuc) expression cassettes were generated as described by Xie, Y. et al. “Characterization of L1 retrotransposition with high-throughput dual-luciferase assays,” Nucleic Acid Res. (2011) Vol. 39, No. 3, e16. In addition, the plasmid contained an intact Renilla luciferase (RLuc) expression cassette on the vector backbone, in order to normalize transfection efficiency and measure potential cell toxicity.
HEK 293 cells were seeded in 96-well plates at 1,000 cells/well in 55 μL and grown for 24 hours. Cells were transfected with FuGeneHD (Promega) following the manufacturer's protocol. Each well received 0.133 ng plasmid, 0.4 μL FuGeneHD reagent, and 4.5 μL GlutaMAX-I-supplemented Opti-MEM I reduced-serum medium (Invitrogen). Cells were simultaneously treated with test compound serially diluted starting at 100 μM in a 3-fold dilution dose response.
Luminescence was measured using the Dual-Glo Luciferase Assay System (Promega) following the manufacturer's instructions. The ratio between FLuc and RLuc gene expression was used to report LINE1 activity.

[3] = biological target: T2, LINE1 reverse transcriptase; test: Stable artificial-intron Cis LINE1 reporter assay (HeLa Tet-On 3G); type: cell-based; details: HeLa L1 reporter cells, doxycycline induced, 72 h; read-out: IC50 for inhibition of FLuc luminescence
Excerpt: A stable HeLa Tet-On 3G (Takara, cat no 631183) cell line expressing a bi-directional inducible LINE1 construct was generated as described in Xie, Y. et al. “Cell division promotes efficient retrotransposition in a stable L1 reporter cell line,” Mobile DNA (2013) 4:10. Single cell clones were screened for high Luciferase expression and the highest expression Firefly expressing clone was chosen for compound testing.
Test compound was serially diluted in DMSO and spotted in 96-well plates. Subsequently the HeLa L1 artificial-intron reporter cells were plated into the compound-containing wells (8,000 cells/well), and the cells were induced for reporter expression with doxycycline (Sigma cat no D9891) at a final concentration of 500 ng/mL. Luminescence was measured 72 h after plating using the Dual-Glo Luciferase Assay System (Promega cat no E2940) following the manufacturer's instructions. The Firefly Luciferase activity was used to report LINE1 activity.

[4] = system: IFN-β production in PBMCs; test: Decitabine-stimulated human PBMC assay; type: cell-based; details: PBMCs with anti-CD3/anti-CD28 and 10 μM decitabine, 5 days
Experimental: EasySep buffer (32 mL, Stem Cell, cat. #20144) was used to dilute 8 mL of LRSC buffy coat (from fresh Leukopak) with gentle mixing. The diluted buffy coat (20 mL) was transferred into each of two SepMate 50 tubes, and the tubes were filled with 15 mL of Lyphoprep (Stem Cell, ct. #07851) density gradient. The SepMate tubes were then centrifuged at […] for 10 minutes at room temperature with the brake on. The top layer of supernatant was collected in SepMate tubes by quickly pouring it into a new 50 mL conical tube. The PBMCs were washed with EasySep buffer x2 by centrifuging at 300G for 5 minutes. The cells were resuspended in 30 mL of EasySep and centrifuged at 100G for 5 minutes with the brake off, and the platelets were removed. The cells were then resuspended in 6 mL of 1×RBC lysis buffer (InvitroGen) and incubated at 37° C. for 5 minutes. Then, 25 mL of EasySep buffer was mixed into the tube and it was centrifuged at 300G for 5 minutes. The cells were resuspended in 10 mL of EasySep buffer and the cells were then counted with Cellometer (AO/PI). The PBMCs were resuspended in RPMI1640 (ThermoFisher)+10% FBS (HyClone)+p/s at 3×10^6/mL. The PBMCs (100 μL, 300 k PBMCs) were then seeded in a 96-well flat bottom microplate (Corning) that had been precoated with 100 μL of anti-CD3 antibody (10 μg/mL in PBS, Biolegend) or PBS at 4° C., one day before the assay was commenced. […]

[5] = system: THP1-Dual™ KO-TREX1 cells; test: Cellular assay for altering IFN production in THP1 TREX1 KO cells; type: cell-based; details: in the presence of 1 μM 5-aza-2′-deoxycytidine, five days
Experimental: (§1) THP1-Dual™ KO-TREX1 cells were purchased from Invivogen (cat #thpd-kotrex). The THP1-Dual™ KO-TREX1 cells were cultured in RPMI 1640, 10% heat-inactivated fetal bovine serum, 25 mM HEPES, 10 μg/mL Blasticidin, and 100 μg/mL Zeocin. THP1-Dual™ KO-TREX1 cells were treated with a dose titration of test compound in the presence of 1 μM 5-aza-2′-deoxycytidine (Sigma, cat #189825). Type 1 Interferon and cell viability were assessed after five days of treatment.
(§2) Stock solution of test compound was prepared in DMSO followed by a three-fold dilution in DMSO. Additional 50× dilution was prepared in cell culture media for each dilution. 10 μL of diluted test compound was then added to a 384-well plate.
(§3) THP1-Dual™ KO-TREX1 cells were treated with 1 μM 5-aza-2′-deoxycytidine. THP1-Dual™ KO-TREX1 cells (50 μL) were added to each well of the 384-well plate containing test compound titration at 10,000 cells/well. Cells were incubated at 37° C., 5% CO2 in a humidified incubator for five days. On day five, 20 μL of cell supernatant was transferred to a 384-well, white-walled plate, followed by addition to each well of 50 μL of QUANTI-LUC solution containing stabilizer. Luminescence was detected on a plate reader according to manufacturer's instructions. […]

[6] = system: THP1-Dual™ KO-TREX1 cells; test: CellTiter-Glo cell viability in THP1 TREX1 KO cells; type: cell-based; details: Homo sapiens, 120 h, in the presence of 1 μM 5-aza-2′-deoxycytidine, five days, read-out: CellTiter-Glo inhibition IC50
Experimental: as §1, §2
as §3, with “On day five, 20 μL of cell supernatant was transferred to a 384-well, white-walled plate, followed by addition to each well of 50 μL of QUANTI-LUC solution containing stabilizer.” left out
The remaining cells were assessed for cell viability by adding 30 μl of CellTiter-Glo (Promega, G9683) solution to each well, and placed on a shaker for 10 minutes at room temperature. Luminescence was detected on a plate reader, according to manufacturer's instructions. […]

SK-OV-3 cells = test: Cancer cell viability assay with 3D cell colonies (CellTiter-Glo), SK-OV-3; type: cell-based; details: 3D tumorsphere growth, 7 days
Experimental: (§4) Ovarian cancer cell line SK-OV-3 cells were cultured in McCoy's 5a media containing 10% FBS. Ovarian cancer cell line OVCAR-8 cells were cultured in RPMI media containing 10% FBS. Additional cancer cell lines were cultured in the following media: • Ovarian cancer SW756 cells—L-15 (100% air)+10% FBS • Esophageal cancer TE-1 cells—RPMI-1640+10% FBS • Esophageal cancer KYSE-410 cells—RPMI-1640+5˜10% FBS • Esophageal cancer KYSE-70 cells—RPMI-1640+10% h.i.FBS. • Pharyngeal cancer FaDu cells—MEM+0.01 mM NEAA+10% FBS
(§5) Cell colony formation was tested using a 3D methylcellulose-based CellTiter-Glo (CTG) viability assay (Cat. No: G7573, Promega). Briefly, cells were inoculated into 96-well plates (at 1,500 cells per well) into a solution of 0.65% methylcellulose in growth media and incubated overnight at 37° C. in 5% CO2. The next day, serially diluted test compound (islatravir) or positive control (cisplatin, Cat. No. 6J015A89, Qilu Pharma) were added at the indicated concentrations, and the cells were incubated for 7 days. On day seven, 100 μL of CTG reagent was added, and the plates were incubated at room temperature for 20 min. Luminescence was read on an Envision Multi Label Reader according to manufacturer's instructions. IC50 values were determined using the following calculation: […]

OVCAR-8 cells = test: Cancer cell viability assay with 3D cell colonies (CellTiter-Glo), OVCAR-8; type: cell-based; details: 3D tumorsphere growth, 7 days
Experimental: as §4, §5

SW756 cells = test: Cancer cell viability assay with 3D cell colonies (CellTiter-Glo), SW756; type: cell-based; details: 7 days
Experimental: as §4, §5

TE-1 cells = test: Cancer cell viability assay with 3D cell colonies (CellTiter-Glo), TE-1; type: cell-based; details: 7 days
Experimental: as §4, §5

KYSE-410 cells = test: Cancer cell viability assay with 3D cell colonies (CellTiter-Glo), KYSE-410; type: cell-based; details: 7 days
Experimental: as §4, §5

KYSE-70 cells = test: Cancer cell viability assay with 3D cell colonies (CellTiter-Glo), KYSE-70; type: cell-based; details: 7 days
Experimental: as §4, §5

FaDu cells = test: Cancer cell viability assay with 3D cell colonies (CellTiter-Glo), FaDu; type: cell-based; details: 7 days
Experimental: as §4, §5

IC50 [1]: 12.4 nM
SMILES: C#C[C@]1(COP(=O)(O)OP(=O)(O)OP(=O)(O)O)O[C@@H](n2cnc3c(N)nc(F)nc32)C[C@@H]1O

IC50 [2]: 8 nM
IC50 [3]: 3 nM
IC50 [6]: > 20000 nM
SMILES: C#C[C@]1(CO)O[C@@H](n2cnc3c(N)nc(Cl)nc32)C[C@@H]1O [4′-ethynyl-2-chloro-2′-deoxyadenosine]
production of IFN-β [4]: activated production of IFN-β
changes in IFN levels (% induction) [5]: induction of IFN

SMILES: N.N.[Cl][Pt][Cl] [Cisplatin, cisplatin]
IC50 (SK-OV-3 cells): 2.24 µM
IC50 (OVCAR-8 cells): 3.29 µM
IC50 (SW756 cells): ≤ 10 µM
IC50 (TE-1 cells): ≤ 10 µM
IC50 (KYSE-410 cells): > 30 µM
IC50 (KYSE-70 cells): ≤ 10 µM
IC50 (FaDu cells): ≤ 10 µM
